Laboratory results taken from ChEMBL document CHEMBL3596159, “Beyond substrate analogues: new inhibitor chemotypes for glycosyltransferases” (Medchemcomm, 2014).
pIC50, pKi: −log10 of the molar value. *1 amine or outer side, *2 acyl side, *3 side chain or, on linkers, in order; H or OH if unused. Where a SMILES comes first, the peptide text is derived from it. Bridges are numbered along the chain shown (N, C = ends). [ ]: non-standard residue; d: D form. The star is where a group is joined. Orn(4R-OH,5R-OH) = O=C([C@H](C[C@@H](O)[C@@H](O)N[*:3])N[*:1])[*:2]; Tetradecanoyl(10R,12S-Me2) = CC[C@H](C)C[C@H](C)CCCCCCCCC(=O)*; hTyr(3S-OH,4S-OH) = N[C@H](C(=O)O)[C@H](O)[C@@H](O)c1ccc(O)cc1; Gln(3R-OH) = NC(=O)C[C@@H](O)[C@H](N)C(=O)O; Pro(3S-OH) = O=C(O)[C@H]1NCC[C@@H]1O; Hyp = O=C(O)[C@@H]1C[C@@H](O)CN1

Molecular target: T1, Ceramide glucosyltransferase (Homo sapiens) (UniProt Q16739)
T1 sequence (whole entry): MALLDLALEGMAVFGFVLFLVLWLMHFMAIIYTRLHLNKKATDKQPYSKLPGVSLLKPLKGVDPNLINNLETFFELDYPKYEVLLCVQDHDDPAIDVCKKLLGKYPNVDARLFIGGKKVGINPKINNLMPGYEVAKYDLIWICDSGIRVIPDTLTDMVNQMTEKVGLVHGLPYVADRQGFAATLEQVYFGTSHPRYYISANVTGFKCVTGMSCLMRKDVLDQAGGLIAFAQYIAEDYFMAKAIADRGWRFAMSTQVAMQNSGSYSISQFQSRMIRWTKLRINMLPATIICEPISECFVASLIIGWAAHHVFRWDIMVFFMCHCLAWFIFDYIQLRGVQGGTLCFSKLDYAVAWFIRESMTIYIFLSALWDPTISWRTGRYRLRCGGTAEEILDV
Experiment: Inhibition of glucosylceramide synthase (unknown origin) at 5 uM
Settings: not given

Compound	inhibition [%]
CCCCCCCCCCCCC/C=C/[C@@H](O)[C@@H](CN1CCOCC1)NC(=O)CCCCCCCCCCCCCCC	73
CCCCCCCCCCCCC/C=C/[C@@H](O)[C@H](CN1CCOCC1)NC(=O)CCCCCCCCCCCCCCC	5
CCCCCCCCCCCCC/C=C/[C@@H](O)[C@@H](CN1CCCC1)NC(=O)CCCCCCCCCCCCCCC	87
CCCCCCCCCC(=O)N[C@H](CN1CCOCC1)[C@H](O)c1ccccc1	16
CCCCCCCCCCCCC/C=C/[C@H](O)[C@@H](CN1CCOCC1)NC(=O)CCCCCCCCCCCCCCC	5
CCCCCCCCCCCCCCCC(=O)N[C@H](CN1CCOCC1)[C@H](O)c1ccccc1	32
CCCCCCCCCCCCC/C=C/[C@H](O)[C@H](CN1CCOCC1)NC(=O)CCCCCCCCCCCCCCC	5
CCCCCCCCCCCCCCCC(=O)N[C@H](CN1CCCC1)[C@H](O)c1ccccc1	50

Tested on: Trypanosoma brucei
Experiment: Inhibition of Trypanosoma brucei DPMS at 1 mM
Settings: not given

Compound	inhibition [%]
O=C(O)CN1C(=O)/C(=C\c2ccc(OCc3ccccc3)c(OCc3ccccc3)c2)SC1=S	80
O=C(O)CN1C(=O)/C(=C\c2cccc(OCc3ccccc3)c2)SC1=S	77
O=C(O)CN1C(=O)/C(=C\c2ccccc2O)SC1=S	77

Molecular target: T2, UDP-N-acetylglucosamine--peptide N-acetylglucosaminyltransferase 110 kDa subunit (Homo sapiens) (UniProt O15294)
T2 sequence (whole entry): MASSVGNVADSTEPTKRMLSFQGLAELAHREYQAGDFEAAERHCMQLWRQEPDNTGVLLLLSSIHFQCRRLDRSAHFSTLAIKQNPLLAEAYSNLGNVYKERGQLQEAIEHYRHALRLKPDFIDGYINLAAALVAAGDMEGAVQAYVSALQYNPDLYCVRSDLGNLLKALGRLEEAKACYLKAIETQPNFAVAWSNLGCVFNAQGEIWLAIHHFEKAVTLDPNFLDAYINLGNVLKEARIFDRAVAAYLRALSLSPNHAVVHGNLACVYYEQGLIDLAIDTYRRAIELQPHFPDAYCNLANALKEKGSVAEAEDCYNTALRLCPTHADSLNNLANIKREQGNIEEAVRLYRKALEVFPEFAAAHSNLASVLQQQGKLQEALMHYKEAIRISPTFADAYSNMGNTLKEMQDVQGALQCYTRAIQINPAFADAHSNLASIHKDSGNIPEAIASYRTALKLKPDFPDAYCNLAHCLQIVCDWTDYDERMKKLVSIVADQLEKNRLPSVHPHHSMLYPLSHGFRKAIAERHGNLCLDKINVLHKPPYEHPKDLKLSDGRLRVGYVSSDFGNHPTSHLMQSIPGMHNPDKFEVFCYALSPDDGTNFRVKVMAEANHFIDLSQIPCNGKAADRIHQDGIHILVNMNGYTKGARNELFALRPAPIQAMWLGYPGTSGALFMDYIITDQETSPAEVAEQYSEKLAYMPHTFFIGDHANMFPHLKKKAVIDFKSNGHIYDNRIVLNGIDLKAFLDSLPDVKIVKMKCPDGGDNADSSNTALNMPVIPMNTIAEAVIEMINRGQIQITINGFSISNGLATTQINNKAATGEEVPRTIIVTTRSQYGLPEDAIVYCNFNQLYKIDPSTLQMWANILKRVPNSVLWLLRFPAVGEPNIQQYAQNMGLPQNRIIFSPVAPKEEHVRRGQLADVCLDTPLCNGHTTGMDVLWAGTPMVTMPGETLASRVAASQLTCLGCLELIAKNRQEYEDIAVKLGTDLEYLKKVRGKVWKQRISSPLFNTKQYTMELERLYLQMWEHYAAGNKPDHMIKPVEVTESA
Experiment: Inhibition of OGT (unknown origin)
Settings: concentration not given here

Compound	inhibition [%]
CCOC(=O)C(C(C)C)C(N)Cc1ccc(F)cc1 (configuration not stated)	> 30
O=C(O)c1ccc2scnc2c1	> 30
O=C(/C=C/c1cccs1)Nc1scc(-c2ccccc2)c1C(=O)O	> 30

Tested on: Streptococcus mutans
Experiment: Inhibition of Streptococcus mutans sucrose-6-glucosyltransferase at 50 uM
Settings: not given

Compound	inhibition [%]
CCCCCCCC/C=C\CCCCCCCC(=O)OC	16.8
CCCCCCCC/C(I)=C(/I)CCCCCCCC(=O)OCC(COC(=O)CCCCCCC/C(I)=C(/I)CCCCCCCC)OC(=O)CCCCCCC/C(I)=C(/I)CCCCCCCC	26.3
CCCCCCCC/C=C\CCCCCCCC(=O)O	42.4

Tested on: not listed separately
Experiment: Inhibition of MraY (unknown origin)
Settings: not given

Compound	pIC50
NC[C@H]1O[C@@H](O[C@H](c2cn(CCCCCCCCCCOc3ccc(C(=O)c4ccccc4)cc3)nn2)[C@H]2O[C@@H](n3ccc(=O)[nH]c3=O)[C@H](O)[C@@H]2O)[C@H](O)[C@@H]1O	3.90
NC[C@H]1O[C@@H](O[C@H](c2cn(Cc3ccc(COc4ccc(C(=O)c5ccccc5)cc4)cc3)nn2)[C@H]2O[C@@H](n3ccc(=O)[nH]c3=O)[C@H](O)[C@@H]2O)[C@H](O)[C@@H]1O	4.30
NC[C@H]1O[C@@H](O[C@H](c2cn(CCCOc3ccc(C(=O)c4ccccc4)cc3)nn2)[C@H]2O[C@@H](n3ccc(=O)[nH]c3=O)[C@H](O)[C@@H]2O)[C@H](O)[C@@H]1O	4.00
NC[C@H]1O[C@@H](O[C@H](c2cn(CCCCCOc3ccc(C(=O)c4ccccc4)cc3)nn2)[C@H]2O[C@@H](n3ccc(=O)[nH]c3=O)[C@H](O)[C@@H]2O)[C@H](O)[C@@H]1O	4.00

Molecular target: T3, Phospho-N-acetylmuramoyl-pentapeptide-transferase/UDP-N-acetylglucosamine--N-acetylmuramyl-(pentapeptide) pyrophosphoryl-undecaprenol N-acetylglucosamine transf (Escherichia coli K-12, UniProt P0A6W3+P17443)
T3 sequence (P0A6W3 whole entry): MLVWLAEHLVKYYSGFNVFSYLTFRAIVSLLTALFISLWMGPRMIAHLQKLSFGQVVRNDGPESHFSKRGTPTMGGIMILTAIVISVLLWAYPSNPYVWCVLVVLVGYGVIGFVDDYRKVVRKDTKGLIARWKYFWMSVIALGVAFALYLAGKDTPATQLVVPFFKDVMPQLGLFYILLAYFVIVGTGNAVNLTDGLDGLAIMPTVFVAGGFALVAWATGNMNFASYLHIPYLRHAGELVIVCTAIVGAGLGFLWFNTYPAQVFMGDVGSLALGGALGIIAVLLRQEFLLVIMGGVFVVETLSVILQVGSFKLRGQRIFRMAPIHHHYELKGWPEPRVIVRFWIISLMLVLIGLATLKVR
T3 sequence (P17443 whole entry): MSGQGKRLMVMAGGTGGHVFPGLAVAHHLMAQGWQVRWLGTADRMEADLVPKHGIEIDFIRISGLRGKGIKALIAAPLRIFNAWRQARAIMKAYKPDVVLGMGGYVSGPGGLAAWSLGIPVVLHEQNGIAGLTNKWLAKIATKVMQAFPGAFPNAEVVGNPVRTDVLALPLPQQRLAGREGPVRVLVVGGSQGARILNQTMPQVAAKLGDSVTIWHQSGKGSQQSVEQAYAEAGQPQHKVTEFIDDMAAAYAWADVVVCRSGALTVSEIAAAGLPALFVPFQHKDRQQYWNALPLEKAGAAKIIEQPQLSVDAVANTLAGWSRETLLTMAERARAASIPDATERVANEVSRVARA
Experiment: Inhibition of Escherichia coli MraY/MurG
Type: protein assay
Settings: not given

Compound	IC50 [µM]
O=C1OC2(c3cc(I)c(O)cc3Oc3cc(O)c(I)cc32)c2ccccc21	166
COC1=C(O)c2c(O)cc(C)c3c(O)cc(O)c(c23)C1=O	54
CCOC(=O)c1ccccc1-c1c2cc(Br)c(=O)c(Br)c-2oc2c(Br)c(O)c(Br)cc12	18.4

Molecular target: T4, CMP-N-acetylneuraminate-beta-galactosamide-alpha-2,3-sialyltransferase 1 (Homo sapiens, UniProt Q11201)
T4 sequence (Q11201 whole entry): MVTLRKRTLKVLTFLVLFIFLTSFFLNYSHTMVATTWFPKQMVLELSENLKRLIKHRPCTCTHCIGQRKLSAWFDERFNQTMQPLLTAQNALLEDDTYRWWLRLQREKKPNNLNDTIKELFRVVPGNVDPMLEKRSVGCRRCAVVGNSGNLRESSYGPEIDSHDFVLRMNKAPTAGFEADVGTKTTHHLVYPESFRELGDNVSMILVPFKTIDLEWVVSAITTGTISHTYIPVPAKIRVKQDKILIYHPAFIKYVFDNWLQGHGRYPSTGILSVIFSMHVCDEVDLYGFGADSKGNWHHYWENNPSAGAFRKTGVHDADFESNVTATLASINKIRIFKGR
Experiment: Inhibition of ST3Gal 1 (unknown origin)
Settings: not given

Compound	pIC50	pKi
C[C@H](CCCn1cc(CCCC(=O)O)nn1)[C@H]1CC[C@H]2[C@@H]3CC[C@@H]4C[C@H](O)CC[C@]4(C)[C@H]3CC[C@]12C	5.30	5.66
C[C@H](CCC(=O)O)[C@H]1CC[C@H]2[C@@H]3CC[C@@H]4C[C@H](O)CC[C@]4(C)[C@H]3CC[C@]12C [LITHOCHOLIC ACID]	4.68	–

Tested on: not listed separately
Experiment: Inhibition of candida albicans beta-(1,3)-glucan synthase assessed as decrease in transfer of radiolabelled glucose from UDP-[3H]-glucose onto acceptor
Settings: not given

Compound	pIC50
CC[C@H](C)C[C@H](C)CCCCCCCCC(=O)N[C@H]1C[C@@H](O)[C@@H](O)NC(=O)[C@@H]2[C@@H](O)CCN2C(=O)[C@H]([C@H](O)CC(N)=O)NC(=O)[C@H]([C@H](O)[C@@H](O)c2ccc(O)cc2)NC(=O)[C@@H]2C[C@@H](O)CN2C(=O)[C@H]([C@@H](C)O)NC1=O ({Tetradecanoyl(10R,12S-Me2)}-[Orn(4R-OH,5R-OH)]T[Hyp][hTyr(3S-OH,4S-OH)][Gln(3R-OH)][Pro(3S-OH)]; lactam 1-C)	7.15
CC[C@H](C)C[C@H](C)CCCCCCCCC(=O)N[C@H]1C[C@@H](O)[C@@H](OCCN)NC(=O)[C@@H]2[C@@H](O)CCN2C(=O)[C@H]([C@H](O)CCN)NC(=O)[C@H]([C@H](O)[C@@H](O)c2ccc(O)cc2)NC(=O)[C@@H]2C[C@@H](O)CN2C(=O)[C@H]([C@@H](C)O)NC1=O	9.00

Molecular target: T5, UDP-N-acetylglucosamine--N-acetylmuramyl-(pentapeptide) pyrophosphoryl-undecaprenol N-acetylglucosamine transferase (Escherichia coli (strain K12)) (UniProt P17443)
T5 sequence (whole entry): T3 sequence (P17443 whole entry)
Experiment: Inhibition of Escherichia coli MurG at 2.5 microg/ml
Settings: not given

Compound	inhibition [%]
CC1=NN(c2ccc(Cl)c(C(=O)O)c2)C(=O)/C1=C\c1ccc(-c2ccccc2C(=O)O)o1	48
O=C(CN1C(=O)S/C(=C/c2ccc(Cl)cc2)C1=O)Nc1cc([N+](=O)[O-])ccc1O	72
COc1cc(/C=C2\C(=O)NC(=O)N(c3ccc(C)cc3)C2=O)cc([N+](=O)[O-])c1O	72
Cc1cc(/C=C2\C(=O)NC(=S)N(c3ccc(Cl)cc3)C2=O)c(C)n1-c1cc(C(=O)O)cc(C(=O)O)c1	88
NS(=O)(=O)c1ccc(-c2ccc(/C=C3\C(=O)N(c4cccc(S(N)(=O)=O)c4)N=C3C(F)(F)F)o2)cc1	66
COc1c(N/C=C2\C(=O)N(c3ccccc3C)N=C2C)cc([N+](=O)[O-])cc1[N+](=O)[O-]	66
COc1cc(/C=C2\C(=O)N(c3ccc(Cl)c(C(=O)O)c3)N=C2C)cc([N+](=O)[O-])c1O	54
O=C1N/C(=N/c2ccccc2)S/C1=C/c1cc(Br)cc(Cl)c1O	71
